In one data set the test system is db/db mice. Description: Oral glucose tolerance test. The conditions noted are these: fasted db/db mice, 2 g/kg oral glucose 30 minutes after substance. Type of data set: in vivo. As for the experimental part:
Oral Glucose Tolerance Test
Fasted db/db mice 7 to 9 weeks old (Janvier, France) are weighed and blood is taken from the tip of the tail. This blood is used for the first measurement of glucose on the basis of which the animals are randomised and divided into groups. The test substance to be tested may be given either orally or i.p. as a suspension in 0.5% Natrosol. 30 minutes after the administration of the substance the animals are given orally 2 g/kg glucose in a volume of 0.1 ml/100 g body weight dissolved in NaCl solution. Subsequently, the glucose values are determined from the tail blood using a glucometer (Ultra OneTouch, Lifescan) at specific time intervals [30, 60, 120 and 180 minutes after oral administration of the glucose].

In another data set the test system is rats. Description: Tolerability after oral administration to rats (behaviour). It is filed as in vivo. The conditions noted are these: oral administration of 10 mg/kg.

On to `CC(=O)c1ccc2c(c1)/C(=C(/NC1CCN(C)CC1)c1ccc3c(c1)OCO3)C(=O)N2` [Example 1, 5-Acetyl-3-[(benzo[1,3]dioxol-5-yl)-(1-methyl-piperidin-4-ylamino)-methylidene]-2-indolinone], for which the “activity in the oral glucose tolerance test” value with db/db mice is listed as “significant activity”. Also, in the data set with rats, the “changes in the animals' behaviour” value is recorded as “no changes were observed in the animals' behaviour”.

The values are drawn from patent publication US7262206B2, “Cycloalkyl—containing 5-acylindolinones, the preparation thereof and their use as medicaments” (Boehringer Ingelheim International GmbH, priority 2004, dated 2007).
